The text below walks through data of patent publication US11312715B2, “Fused ring derivative as A2A receptor inhibitor” (CSTONE PHARMACEUTICALS (SUZHOU) CO., LTD., priority 2017, dated 2022).

pIC50: −log10 of the molar value.

In data set [1] the target is T1, Human Adenosine A2a Receptor (Homo sapiens, UniProt P29274).
T1 construct: host or cells: CHO
The data set can be described thus: Human adenosine A2a receptor calcium flow detection experiment (FLIPR, Fluo-4, NECA agonist). It counts as cell-based. Particulars: A2a stable CHO cell line, antagonist mode vs NECA at EC80. The protocol:
Human Adenosine A2a Receptor Calcium Flow Detection Experiment
A2a stable cell line was constructed by Shanghai Wuxi Apptec, and the host cell was CHO.
Fluo-4 Direct kit (Invitrogen, article number: F10471). After the fluorescence detection reagent (specifically binding to calcium ions and causing an increase of fluorescence signal) in the kit was incubated with the cells for an appropriate time, the compound was added to stimulate the cells and induced changes in intracellular calcium flow, thus causing the changes in fluorescence signal, which can reflect the intensity of the agonistic or inhibiting activity of the compounds.
F12+10% fetal bovine serum+geneticin 300 μg/mL+blasticidin 2 μg/mL
Hanks balanced salt buffer (Invitrogen)+20 mM HEPES, which was prepared before each use
The compounds to be tested were dissolved in DMSO to prepare a 10 mM mother liquor. The test compound was diluted to 0.2 mM with DMSO, and the reference compound CGS-15943 was diluted to 0.015 mM with DMSO. Then a 10-point 3-fold serial dilution was performed with ECHO, then 900 nL of the dilutions was transferred to a compound plate (Greiner-781280), and 30 μL of the compound dilution buffer was added. The final initial concentration of the compounds to be tested was 1 μM and that of CGS-15943 was 0.075 μM.
Frozen A2A cells were suspended to 1×10^6 cells/mL with the culture medium after resuscitation, seeded with 20 μL/well into a 384-well polylysine coated cell plate (Greiner-781946), then incubated under 5% CO2 at 37° C. overnight.
The cell plate prepared the day before was taken out from the incubator, 20 μL 2×Fluo-4 Direct™ buffer was added into each cell, then incubated under 5% CO2 at 37° C. in an incubator for 50 minutes, and was allowed to stand at room temperature for 10 minutes.
Dilution of the agonist NECA: NECA with an initial concentration of 0.15 mM was 3-fold serially diluted with Echo to prepare 10 dilutions, and then 900 nL of the dilutions was transferred to the corresponding compound plate; then 30 μL of the compound dilution buffer was added into the corresponding compound plate. The final initial concentration was 750 nM.
FLIPR instrument and software were performed according to the set program, 10 μL of the compound dilution buffer was added into the cell plate, and the fluorescence signal was read. 10 μL of the agonist reference compound with a predetermined concentration was added to the cell plate and the fluorescence signal was read. After reading, the data were exported by “Max-Min” and “Read 90 to Maximum allowed” methods in the software, the EC80 on A2A cell line was calculated, and 6×EC80 concentration of agonist was prepared. The agonist reference compound with a concentration of 6×EC80 was prepared with buffer salt solution, and 30 μL/well was aliquoted into the corresponding compound plate for later use.
FLIPR instrument and software were performed according to the set program, 10 μL of test compounds and reference compound with a predetermined concentration was added into the cell plate, and the fluorescence signal was read. 10 μL of the agonist reference compound with a concentration of 6×EC80 was added into the cell plate and the fluorescence signal was read. For the agonist detection of the compounds, the data were exported by “Max-Min” and “Read 1 to 90” methods in the software. For the antagonist detection of the compounds, the data were exported by “Max-Min” and “Read 90 to Maximum allowed” methods in the software. The data were analyzed by GraphPad Prism 5.0 and the IC50 value of the test compounds was calculated.

Data set [2] can be described thus: Pharmacokinetic evaluation after single intravenous injection and single oral administration in mice. The format is in vivo. Conditions: mouse, female Balb/C mice, plasma, single IV / single PO study; for bioavailability: read-out: Bioavailability F; for clearance: read-out: Clearance rate; for AUC: read-out: Concentration integral AUC; for half-life: read-out: Half-life T1/2 (converted). The protocol:
Experimental materials: Balb/C mice (female, 15-30 g, 7-9 weeks old, Shanghai Linchang) were used.
Experimental method: The pharmacokinetic characteristics of the compound after intravenous injection and oral administration were tested on rodents by standard scheme, in the experiment, the candidate compounds were prepared into clear solutions and administrated to mice by single intravenous injection and single oral administration. Intravenous injection (IV) menstruum was a mixed solvent of 5% DMSO/5% polyethylene glycol hydroxystearate/90% water, and oral (PO) menstruum was a mixed solvent of 1% Tween 80, 9% PEG400 and 90% water (pH=3). The whole blood sample within 48 hours was collected, centrifuged at 3000 g at 4° C. for 15 minutes, and the supernatant was separated to obtain the plasma sample. An acetonitrile solution containing internal standard with a volume of 20 times that of the plasma sample was added to precipitate protein, the supernatant was centrifuged and an equal volume of water was added, then the supernatant was taken for injection. The blood drug concentration was quantitatively analyzed by LC-MS/MS analysis method, and the pharmacokinetic parameters such as peak concentration, peak time, clearance rate, half-life, area under the drug concentration-time curve, bioavailability, etc. were calculated.

T1 sequence (P29274 whole entry): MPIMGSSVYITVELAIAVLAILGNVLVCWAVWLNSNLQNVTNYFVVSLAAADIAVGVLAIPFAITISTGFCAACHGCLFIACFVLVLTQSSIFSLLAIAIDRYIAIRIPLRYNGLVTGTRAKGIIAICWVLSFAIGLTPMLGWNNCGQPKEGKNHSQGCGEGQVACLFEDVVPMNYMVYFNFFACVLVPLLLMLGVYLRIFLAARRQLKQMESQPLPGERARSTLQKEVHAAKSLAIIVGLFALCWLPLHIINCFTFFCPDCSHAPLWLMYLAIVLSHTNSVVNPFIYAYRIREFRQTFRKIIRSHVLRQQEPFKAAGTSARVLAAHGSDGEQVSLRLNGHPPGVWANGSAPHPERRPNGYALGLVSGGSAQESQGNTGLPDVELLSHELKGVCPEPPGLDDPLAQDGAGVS

The term pIC50 denotes the IC50 on a negative log10 scale, so that one unit is a factor of ten. A word on the bioavailability: it is dose-corrected exposure relative to a reference, in per cent. On to `Cc1cc(-c2c(-c3ccc(F)cc3)nc(N)c3nccnc23)cc(C)n1` [Embodiment 1], for which the pIC50 in data set [1] was 8.32. Further, in data set [2], the bioavailability came out at 57.6%, the clearance is 16.5 mL/min/kg, the AUC came to 16.7 µM·h and the half-life was 36 min. The matching figures for `Cc1cc(-c2c(-c3ccc(F)cc3)nc(N)c3nccnc23)cc(Cl)n1` [Embodiment 2]: 8.76, 76.2%, 17.1 mL/min/kg, 20.3 µM·h and 46.8 min. The matching figures for `Nc1nc(-c2ccc(F)cc2)c(-c2cc(Cl)nc(C(F)(F)F)c2)c2nccnc12` [Embodiment 3]: 8.02, 69%, 18.1 mL/min/kg, 15.7 µM·h and 83.4 min. Regarding `Nc1nc(-c2ccc(F)cc2)c(-c2ccc3ncccc3c2)c2nccnc12` [Embodiment 4], the pIC50 in data set [1] is 9.04. Same read-out and setting: to `Nc1nc(-c2ccc(F)cc2)c(-c2ccc3nccnc3c2)c2nccnc12` [Embodiment 5] belongs 7.56.

Consider `Nc1nc(-c2ccc(F)cc2)c(-c2ccc3ncnn3c2)c2nccnc12` [Embodiment 6], for which the pIC50 in data set [1] is 8.94. Further, in data set [2], the clearance was 5.87 mL/min/kg, the AUC came out at 24.1 µM·h and the half-life is 49.2 min. For `Nc1nc(-c2ccc(F)cc2)c(-c2ccn3ncnc3c2)c2nccnc12` [Embodiment 7], the pIC50 in data set [1] was 7.50. `Nc1nc(-c2ccc(F)cc2)c(-c2ccc3c(c2)CCCN3)c2nccnc12` [Embodiment 8]: in data set [1], the negative logarithm of the IC50 (pIC50) was 7.57. Still for that read-out and setting: the value for `Nc1nc(-c2ccc(F)cc2)c(-c2ccc3nncn3c2)c2nccnc12` [Embodiment 9] was 7.81; that for `Cc1cc(-c2c(-c3ccc(F)cc3)nc(N)c3nccnc23)cc(C(F)(F)F)n1` [Embodiment 10] was 8.04. For `Cc1cc(-c2c(-c3ccc(F)cc3)nc(N)c3cccnc23)cc(Cl)n1` [Embodiment 11], the pIC50 in data set [1] is 8.75. In the case of `Nc1nc(-c2ccc(F)cc2)c(-c2ccc3ncnn3c2)c2ncccc12` [Embodiment 12], the pIC50 in data set [1] is 8.81. In data set [2], the bioavailability stood at 95.4%, the clearance worked out at 1.72 mL/min/kg, the AUC was found to be 259 µM·h and the half-life is 197 min. `Nc1nc(-c2ccc(F)cc2)c(-c2ccc3nnccc3c2)c2nccnc12` [Embodiment 13]: the pIC50 in data set [1] was 8.03. `Nc1nc(-c2ccc(F)cc2)c(-c2ccc3ncncc3c2)c2nccnc12` [Embodiment 14]: the pIC50 in data set [1] is 9.12.

For `Cc1cc(-c2c(-c3ccc(Cl)cc3)nc(N)c3nccnc23)cc(Cl)n1` [Embodiment 15], the pIC50 in data set [1] is 8.42. Same read-out and setting: to `Nc1ncc2cc(-c3c(-c4ccc(F)cc4)nc(N)c4nccnc34)ccc2n1` [Embodiment 16] belongs 8.21; to `Nc1nc(-c2ccc(F)cc2)c(-c2cc(F)c3ncccc3c2)c2nccnc12` [Embodiment 17], 9.10.

On to `Nc1nc(-c2ccc(F)cc2)c(-c2ccc3cnccc3c2)c2nccnc12` [Embodiment 18], for which the pIC50 in data set [1] is 7.10. The same measure, in the same setting: the value for `Nc1nc(-c2ccc(F)cc2)c(-c2ccc3nccn3c2)c2nccnc12` [Embodiment 19] was 9.27. On the same count and under the same terms, the value for `Nc1nc(-c2ccc(F)cc2)c(-c2ccc3[nH]ncc3c2)c2nccnc12` [Embodiment 20] was 8.48; that for `Nc1nc(-c2ccc(F)cc2)c(-c2cc(Cl)c3[nH]ncc3c2)c2nccnc12` [Embodiment 21] was 9.09; that for `Nc1nc(-c2ccc(F)cc2)c(-c2ccc3[nH]nc(Cl)c3c2)c2nccnc12` [Embodiment 22] was 7.42. As to `Nc1nc(-c2ccc(F)cc2)c(-c2ccc3ncsc3c2)c2nccnc12` [Embodiment 23], the pIC50 in data set [1] was 9.02. Regarding `Cc1cc(-c2c(-c3ccc(F)cc3)nc(N)c3ncccc23)cc(Cl)n1` [Embodiment 24], the negative-log IC50 (pIC50) in data set [1] is 8.26. Still for that read-out and setting: the value for `Cc1cc(-c2c(-c3ccc(F)cc3)nc(N)c3cncnc23)cc(Cl)n1` [Embodiment 25] was 9.05; that for `Nc1nc(-c2ccc(F)cc2)c(-c2cc(Cl)c3ncccc3c2)c2nccnc12` [Embodiment 26] was 9.04. Consider `Nc1nc(-c2ccccc2)c(-c2ccc3ncnn3c2)c2ncccc12` [Embodiment 27], for which, in data set [1], the pIC50 is 9.25. On the same count and under the same terms, the value for `Cc1cc(-c2c(-c3ccc(C)o3)nc(N)c3nccnc23)cc(Cl)n1` [Embodiment 28] was 8.99. Same read-out and setting: to `Cn1ccc(-c2nc(N)c3nccnc3c2-c2ccc3ncnn3c2)n1` [Embodiment 29] belongs 8.50. For `Nc1nc(-c2ccc(Cl)o2)c(-c2ccc3ncnn3c2)c2nccnc12` [Embodiment 30], in data set [1], the pIC50 is 9.46. Turning to `Cc1ccc(-c2nc(N)c3nccnc3c2-c2ccc3ncnn3c2)o1` [Embodiment 31], the pIC50 in data set [1] was 9.24. On the same count and under the same terms, to `Nc1nc(-c2ccc(Cl)s2)c(-c2ccc3ncnn3c2)c2nccnc12` [Embodiment 32] belongs 8.74; to `Cc1cc(-c2c(-c3ccc(Cl)s3)nc(N)c3nccnc23)cc(Cl)n1` [Embodiment 33], 7.62; to `Nc1nc(-c2ccc(F)cc2)c(-c2cc(Cl)c3ncnn3c2)c2nccnc12` [Embodiment 34], 8.98.
